The source of these data is PubChem BioAssay AID434987 (Southern Research Specialized Biocontainment Screening …, 2010).

As a reminder, the IC50 is the concentration at which inhibition is half-maximal. As usually defined, the pIC50 is −log10 of the IC50, conventionally taken in molar units. One may read the IC90 as the concentration needed for an effect of 90%. The low end stands for an effect from little substance, the high end for a need for much substance.

pIC50: −log10 of the molar value. Activity calls are given as the source filed them. How the calls were made is not given here.

The assay relates to M. tuberculosis H37Rv growth inhibition with meropenem. Kind of assay: dose response, H37Rv, with and without meropenem (AID 434987).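 Further: growth over 7 days at 37 °C before Alamar Blue read on day 9.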
[1] abbreviates: M. tuberculosis H37Rv growth inhibition, measured here: IC50 without meropenem.
Where [2] appears, read: M. tuberculosis H37Rv growth inhibition, measured here: IC90 without meropenem.
The mark [3] stands for this setting: measured here: IC90 with meropenem.

`S=C(Nc1ccccc1Cl)N1CCCC(c2ccccc2)=N1`: the IC50 is > 100 µM (inactive). Under setting [1], this molecule gave a pIC50 of 4.16. Also, the 90% effect concentration (IC90) under setting [2] is 87.8 µM. This molecule registered a 90% effect concentration (IC90) under setting [3] of over 100 µM.

`O=C(c1cc2c(s1)CCCC2)n1cccn1`: the IC50 is 93.4 µM (inactive). The same molecule gave a pIC50 under setting [1] of under 4.00. This molecule displayed an IC90 under setting [2] of over 100 µM. In addition, the 90% effect concentration (IC90) under setting [3] was over 100 µM.

Consider `CN(c1ccc(C(=O)Nc2ccccc2Sc2ccccc2)cc1)S(C)(=O)=O`, for which the IC50 is > 100 µM (inactive). In addition, under setting [1], the pIC50 is under 4.00. This molecule yielded an IC90 under setting [2] of over 100 µM. In addition, the IC90 under setting [3] was over 100 µM.

Regarding `CC(C)c1ccc(S(=O)(=O)N2CCN(C(C)C(=O)NC3CCCC3)CC2)cc1` (stereo not drawn), the IC50 was > 100 µM (inactive). Under setting [1], this molecule showed a pIC50 of under 4.00. This molecule had a concentration for an effect of 90% (IC90) under setting [2] of over 100 µM. Further, the IC90 under setting [3] is over 100 µM.

As for `CCC(=O)c1ccc(OCc2ccc(C(=O)OC)cc2)c(OC)c1`, the pIC50 is 4.55. The molecule also showed a pIC50 under setting [1] of under 4.00. Under setting [2], this molecule registered a concentration for an effect of 90% (IC90) of over 100 µM. In addition, the IC90 under setting [3] was over 100 µM.

On to `COc1cc(NC(=O)c2ccccc2F)c(OC)cc1NC(=O)CN1CCOCC1`, for which the pIC50 was 4.53. Moreover, the pIC50 under setting [1] is under 4.00. The 90% effect concentration (IC90) under setting [2] is over 100 µM. The molecule also yielded an IC90 under setting [3] of over 50 µM.

As to `CC1CN(C2CCCCC2)c2nc3c(c(=O)[nH]c(=O)n3C)n2C1` (stereo not drawn), the IC50 was > 100 µM (inactive). This molecule showed a negative-log IC50 (pIC50) under setting [1] of under 4.00. In addition, under setting [2], the 90% effect concentration (IC90) was over 100 µM. The molecule further displayed an IC90 under setting [3] of over 100 µM.

Turning to `O=C(NN=C(Cc1ccccc1)Cc1ccccc1)c1ccccc1F`, the pIC50 is 5.78. In addition, the negative-log IC50 (pIC50) under setting [1] was under 4.00. The molecule also yielded a 90% effect concentration (IC90) under setting [2] of over 100 µM. For the same molecule, the IC90 under setting [3] is over 50 µM.

For the molecule `CC(C)(C)Nc1nc(Nc2ccc([N+](=O)[O-])cc2)nc(NC(C)(C)C)n1`, the IC50 was > 100 µM (inactive). The molecule also showed a pIC50 under setting [1] of under 4.00. Under setting [2], this molecule came in with an IC90 of over 100 µM. The molecule further showed an IC90 under setting [3] of over 100 µM.

With `O=C(CCCCCN1C(=O)c2cccc([N+](=O)[O-])c2C1=O)Nc1ccccc1F`, the pIC50 was 4.99. The molecule also gave a pIC50 under setting [1] of under 4.00. Under setting [2], this molecule returned an IC90 of over 100 µM. Further, the IC90 under setting [3] stood at 44.1 µM.

For the molecule `CCN(CC)S(=O)(=O)c1ccc(N/N=C(\C)c2ccc(OC)cc2O)nc1`, the pIC50 is 5.97. The molecule also showed a pIC50 under setting [1] of 5.24. This molecule also displayed an IC90 under setting [2] of 11.3 µM. Besides, the concentration for an effect of 90% (IC90) under setting [3] amounted to 10.4 µM.

In the case of `CC1=Nc2ccccc2/C1=C\c1nc(-c2ccc(F)cc2)oc1O`, the pIC50 is 5.43. Further, the pIC50 under setting [1] was 4.03. This molecule also registered a concentration for an effect of 90% (IC90) under setting [2] of over 100 µM. The molecule also returned an IC90 under setting [3] of over 100 µM.

`COc1ccc2nc(SCc3cccc(C)c3)nc(C)c2c1`: the IC50 was > 100 µM (inactive). The pIC50 under setting [1] is under 4.00. The IC90 under setting [2] is over 100 µM. The molecule further showed a 90% effect concentration (IC90) under setting [3] of over 100 µM.

Turning to `CCCN1C(=O)c2ccc(C(=O)Nc3cc(C)on3)cc2C1=O`, the IC50 was > 100 µM (inactive). The pIC50 under setting [1] was under 4.00. Moreover, under setting [2], the IC90 is over 100 µM. This molecule had a 90% effect concentration (IC90) under setting [3] of over 100 µM.

Turning to `CC(C)(C)NS(=O)(=O)c1ccc(NC(=O)C(Sc2ccccc2)c2ccccc2)cc1` (stereo not drawn), the IC50 was > 100 µM (inactive). Also, under setting [1], the negative-log IC50 (pIC50) is under 4.00. The molecule further displayed an IC90 under setting [2] of over 100 µM. In addition, under setting [3], the 90% effect concentration (IC90) was over 100 µM.

Consider `Cc1cc(Br)ccc1NC(=O)CN1C(=O)C2CC=CCC2C1=O` (stereo not drawn), for which the pIC50 is 6.00. The molecule further had a pIC50 under setting [1] of 5.06. The same molecule showed a 90% effect concentration (IC90) under setting [2] of 26.7 µM. The molecule also displayed an IC90 under setting [3] of 38.7 µM.

Turning to `O=C1C2CCN(CC2)C1Cc1ccc(OCCOc2ccccc2)cc1` (stereo not drawn), the IC50 was > 100 µM (inactive). Under setting [1], this molecule showed a negative logarithm of the IC50 (pIC50) of under 4.00. This molecule showed an IC90 under setting [2] of over 100 µM. This molecule also gave an IC90 under setting [3] of over 100 µM.

In the case of `CCOc1cccc(=O)c2c(C)n(Cc3ccccc3)c(C)c12`, the IC50 is > 100 µM (inactive). Under setting [1], the negative logarithm of the IC50 (pIC50) is under 4.00. The molecule further registered a 90% effect concentration (IC90) under setting [2] of over 100 µM. The same molecule displayed an IC90 under setting [3] of over 100 µM.

As to `CC(C)NC(=S)NN=C1c2ccccc2-c2ccccc21`, the IC50 is 35.7 µM (inactive). Under setting [1], the pIC50 is 4.23. This molecule showed an IC90 under setting [2] of over 100 µM. Under setting [3], this molecule gave an IC90 of over 100 µM.

In the case of `CS/C(N)=N/N=C/c1cc(Br)cc(Br)c1O`, the IC50 is 19.7 µM (inactive). The molecule further showed a pIC50 under setting [1] of 4.46. This molecule had a concentration for an effect of 90% (IC90) under setting [2] of over 100 µM. This molecule yielded a 90% effect concentration (IC90) under setting [3] of over 100 µM.

For `COc1ccc(/C=N/Nc2nc(-c3ccc(C)cc3)c(NC(C)=O)s2)cc1OC`, the IC50 was > 100 µM (inactive). Under setting [1], this molecule gave a pIC50 of under 4.00. Also, the IC90 under setting [2] was over 100 µM. Further, the 90% effect concentration (IC90) under setting [3] was over 100 µM.

On to `COc1ccc2nc(NC(=O)NC3CCCCC3)sc2c1`, for which the IC50 was > 100 µM (inactive). Further, the pIC50 under setting [1] was under 4.00. For the same molecule, under setting [2], the 90% effect concentration (IC90) is over 100 µM. Under setting [3], this molecule had a concentration for an effect of 90% (IC90) of over 100 µM.
